Results reported in patent US11345711B2, “8,9-dihydroimidazo[1,2-a]pyrimido[5,4-e]pyrimidin-5(6H)-ones” (IMPACT THERAPEUTICS (SHANGHAI), INC, priority 2016, dated 2022).
Where two headings read alike, the source gives them in different places.

Columns and labels:
LoVo cells = assay: MTT based cell viability assay on LoVo cells; conditions: for IC50: Homo sapiens, LoVo, 72 h, 3 d, read-out: IC50, growth inhibition of LoVo cells
How it was run: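 Inhibition of LoVo proliferation was derived as IC50 from a sigmoidal dose-response fit of cell survival. Readout was MTT (0.5 mg/mL, 4 h) with absorbance at 552/630/690 nm, after 3-day treatment at 37 °C. Eight-point series from 10 μM to 0.01 μM, DMSO control, 1% DMSO final.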

NCI-H1299 cells = assay: MTT based cell viability assay on NCI-H1299 cells; conditions: for IC50: read-out: IC50, growth inhibition of NCI-H1299 cells
How it was run: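 Viability read-out was MTT reduction (0.5 mg/mL, 4 h, absorbance 552/630/690 nm) after 3-day compound exposure at 37 °C of NCI-H1299 cells seeded at 1000 per well. Dilutions spanned 10 μM–0.01 μM in DMSO, final DMSO 1‰. Survival-versus-concentration curves were fitted sigmoidally to give IC50.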

Wee1 (h) = Wee1 (h) (Homo sapiens, UniProt P30291); assay: Wee1 kinase (h) detection method, [γ-33P]-ATP filter assay; format: biochemical
Chain of Wee1 (h) (P30291 whole entry): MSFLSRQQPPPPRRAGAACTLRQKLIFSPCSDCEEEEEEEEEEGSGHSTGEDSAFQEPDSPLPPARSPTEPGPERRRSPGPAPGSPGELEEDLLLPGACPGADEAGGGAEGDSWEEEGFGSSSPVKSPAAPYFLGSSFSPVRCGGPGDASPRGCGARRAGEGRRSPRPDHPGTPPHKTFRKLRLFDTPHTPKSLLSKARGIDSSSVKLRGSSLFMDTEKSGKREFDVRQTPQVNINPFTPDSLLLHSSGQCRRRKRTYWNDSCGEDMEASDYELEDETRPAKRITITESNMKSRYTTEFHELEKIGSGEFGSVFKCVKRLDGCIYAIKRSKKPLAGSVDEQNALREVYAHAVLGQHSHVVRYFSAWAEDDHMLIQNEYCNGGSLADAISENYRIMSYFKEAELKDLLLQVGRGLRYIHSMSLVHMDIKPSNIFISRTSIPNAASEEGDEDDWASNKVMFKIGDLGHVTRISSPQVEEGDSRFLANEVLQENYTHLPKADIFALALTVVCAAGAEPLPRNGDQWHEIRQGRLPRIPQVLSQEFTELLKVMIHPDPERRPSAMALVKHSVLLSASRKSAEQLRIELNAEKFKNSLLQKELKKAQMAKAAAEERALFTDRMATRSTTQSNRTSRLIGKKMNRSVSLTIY

[1] = Homo sapiens, NCI-H1299, NCI-H1299 cells

IC50 (LoVo cells) [nM]	IC50 (NCI-H1299 cells; Homo sapiens, NCI-H1299 cells) [nM]	Inh. (%) of Wee1 kinase enzyme activity (Wee1 (h); C 0.01 μm compound) [%]	Inh. (%) of Wee1 kinase enzyme activity (Wee1 (h); C 0.1 μm compound) [%]	Inh. (%) of Wee1 kinase enzyme activity (Wee1 (h); C 1 μm compound) [%]	IC50 (NCI-H1299 cells; [1]) [nM]	IC50 (NCI-H1299 cells; NCI-H1299 cells) [nM]	SMILES	inhibitory effect on the growth of LoVo cells compared with AZD1775 (LoVo cells)	inhibitory effect on the growth of NCI-H1299 cells compared with AZD1775 (NCI-H1299 cells)
158	992	15	71	91	–	–	Cc1cc(Nc2ncc3c(n2)N2CCN=C2N(c2c(F)cccc2F)C3=O)ccc1N1CCN(C)CC1 [Example 60, 6-(2,6-Difluorophenyl)-2-((3-methyl-4-(4-methylpiperazin-1-yl)phenyl)amino)-8,9-dihydroimidazo[1,2-a]pyrimido[5,4-e]pyrimidin-5(6H)-one]	–	–
757	1230	–	–	82	–	–	Cc1cc(Nc2ncc3c(n2)N2CCN=C2N(c2c(F)cccc2C(F)(F)F)C3=O)ccc1N1CCN(C)CC1 [Example 61, 6-(2-Fluoro-6-(trifluoromethyl)phenyl)-2-((3-methyl-4-(4-methylpiperazin-1-yl)phenyl)amino)-8,9-dihydroimidazo[1,2-a]pyrimido[5,4-e]pyrimidin-5(6H)-one]	–	–
> 100000	> 10000	–	–	0	–	–	C[C@@H]1CN(c2ccc(Nc3ncc4c(n3)N3CCN=C3N(c3c(Cl)cccc3Cl)C4=O)c(F)c2)C[C@H](C)N1C [Example 66, 6-(2,6-Dichlorophenyl)-2-((2-fluoro-4-((3S,5R)-3,4,5-trimethylpiperazin-1-yl)phenyl)amino)-8,9-dihydroimidazo[1,2-a]pyrimido[5,4-e]pyrimidin-5(6H)-one]	–	–
> 100000	> 10000	–	–	6	–	–	C[C@@H]1CN(c2ccc(Nc3ncc4c(n3)N3CCN=C3N(c3c(Cl)cccc3Cl)C4=O)c(C(F)(F)F)c2)C[C@H](C)N1C [Example 68, 6-(2,6-Dichlorophenyl)-2-((2-trifluoromethyl-4-((3S,5R)-3,4,5-trimethylpiperazin-1-yl)phenyl)amino)-8,9-dihydroimidazo[1,2-a]pyrimido[5,4-e]pyrimidin-5(6H)-one]	–	–
105	–	24	73	97	426	–	CN1CCN(c2ccc(Nc3ncc4c(n3)N3CCN=C3N(c3c(Cl)cccc3Cl)C4=O)cc2F)CC1 [Example 69, 6-(2,6-Dichlorophenyl)-2-((3-fluoro-4-(4-methylpiperazin-1-yl)phenyl)amino)-8,9-dihydroimidazo[1,2-a]pyrimido[5,4-e]pyrimidin-5(6H)-one]	–	–
124	–	17	69	99	448	–	C[C@@H]1CN(c2ccc(Nc3ncc4c(n3)N3CCN=C3N(c3c(Cl)cccc3Cl)C4=O)cc2F)C[C@H](C)N1C [Example 70, 6-(2,6-Dichlorophenyl)-2-((3-fluoro-4-((3S,5R)-3,4,5-trimethylpiperazin-1-yl)phenyl)amino)-8,9-dihydroimidazo[1,2-a]pyrimido[5,4-e]pyrimidin-5(6H)-one]	–	–
44.3	–	36	74	98	–	603	CN1CCN(c2ccc(Nc3ncc4c(n3)N3CCN=C3N(c3c(Cl)cccc3Cl)C4=O)cc2Cl)CC1 [Example 71, 2-((3-chloro-4-(4-methylpiperazin-1-yl)phenyl)amino)-6-(2,6-dichlorophenyl)-8,9-dihydroimidazo[1,2-a]pyrimido[5,4-e]pyrimidin-5(6H)-one]	–	–
40.2	–	24	80	100	161	–	Cc1cc(Nc2ncc3c(n2)N2CCN=C2N(c2c(Cl)cccc2Cl)C3=O)ccc1N1CCN(C)CC1 [Example 75, 6-(2,6-Dichlorophenyl)-2-((3-methyl-4-(4-methylpiperazin-1-yl)phenyl)amino)-8,9-dihydroimidazo[1,2-a]pyrimido[5,4-e]pyrimidin-5(6H)-one]	stronger inhibitory effect on the growth of LoVo cells than AZD1775	stronger inhibitory effect on the growth of NCI-H1299 cells than AZD1775

More lines, now with the values behind:

SMILES	IC50 (LoVo cells) [nM]	IC50 (NCI-H1299 cells; Homo sapiens, NCI-H1299 cells) [nM]	Inh. (%) of Wee1 kinase enzyme activity (Wee1 (h); C 0.01 μm compound) [%]	Inh. (%) of Wee1 kinase enzyme activity (Wee1 (h); C 0.1 μm compound) [%]	Inh. (%) of Wee1 kinase enzyme activity (Wee1 (h); C 1 μm compound) [%]	IC50 (NCI-H1299 cells; [1]) [nM]	IC50 (NCI-H1299 cells; NCI-H1299 cells) [nM]	inhibitory effect on the growth of LoVo cells compared with AZD1775 (LoVo cells)	inhibitory effect on the growth of NCI-H1299 cells compared with AZD1775 (NCI-H1299 cells)
CC(C)N1Cc2cc(Nc3ncc4c(n3)N3CCN=C3N(c3c(F)cccc3Cl)C4=O)ccc2C2(CC2)C1 [Example 58, 6-(2-Chloro-6-fluorophenyl)-2-((2′-isopropyl-2′,3′-dihydro-1′H-spiro[cyclopropane-1,4′-isoquinolin]-7′-yl)amino)-8,9-dihydroimidazo[1,2-a]pyrimido[5,4-e]pyrimidin-5(6H)-one]	90	426	46	92	100	–	–	–	–
CN1CCn2nc(Nc3ncc4c(n3)N3CCN=C3N(c3c(F)cccc3Cl)C4=O)cc2C1 [Example 59, 6-(2-Chloro-6-fluorophenyl)-2-((5-methyl-4,5,6,7-tetrahydropyrazolo[1,5-a]pyrazin-2-yl)amino)-8,9-dihydroimidazo[1,2-a]pyrimido[5,4-e]pyrimidin-5(6H)-one]	> 100000	> 10000	–	–	49	–	–	–	–
Cc1cc(Nc2ncc3c(n2)N2CCN=C2N(c2c(C)cccc2F)C3=O)ccc1N1CCN(C)CC1 [Example 62, 6-(2-Fluoro-6-methylphenyl)-2-((3-methyl-4-(4-methylpiperazin-1-yl)phenyl)amino)-8,9-dihydroimidazo[1,2-a]pyrimido[5,4-e]pyrimidin-5(6H)-one]	194	925	–	–	83	–	–	–	–
CC(C)N1CCN(c2ccc(Nc3ncc4c(n3)N3CCN=C3N(c3c(Cl)cccc3Cl)C4=O)cc2)CC1 [Example 63, 6-(2,6-Dichlorophenyl)-2-((4-(4-isopropylpiperazin-1-yl)phenyl)amino)-8,9-dihydroimidazo[1,2-a]pyrimido[5,4-e]pyrimidin-5(6H)-one]	76.8	360	17	76	99	–	–	–	–
C[C@@H]1CN(c2ccc(Nc3ncc4c(n3)N3CCN=C3N(c3c(Cl)cccc3Cl)C4=O)cc2)C[C@H](C)N1C [Example 64, 6-(2,6-Dichlorophenyl)-2-((4-((3S,5R)-3,4,5-trimethylpiperazin-1-yl)phenyl)amino)-8,9-dihydroimidazo[1,2-a]pyrimido[5,4-e]pyrimidin-5(6H)-one]	96.5	177	52	88	100	–	–	–	–
CC(C)N1[C@H](C)CN(c2ccc(Nc3ncc4c(n3)N3CCN=C3N(c3c(Cl)cccc3Cl)C4=O)cc2)C[C@@H]1C [Example 65, 6-(2,6-Dichlorophenyl)-2-((4-((3S,5R)-4-isopropyl-3,5-dimethylpiperazin-1-yl)phenyl)amino)-8,9-dihydroimidazo[1,2-a]pyrimido[5,4-e]pyrimidin-5(6H)-one]	102	404	18	68	98	–	–	–	–
C[C@@H]1CN(c2ccc(Nc3ncc4c(n3)N3CCN=C3N(c3c(Cl)cccc3Cl)C4=O)c(Cl)c2)C[C@H](C)N1C [Example 67, 6-(2,6-Dichlorophenyl)-2-((2-chloro-4-((3S,5R)-3,4,5-trimethylpiperazin-1-yl)phenyl)amino)-8,9-dihydroimidazo[1,2-a]pyrimido[5,4-e]pyrimidin-5(6H)-one]	> 100000	> 10000	–	–	24	–	–	–	–
C[C@@H]1CN(c2ccc(Nc3ncc4c(n3)N3CCN=C3N(c3c(Cl)cccc3Cl)C4=O)cc2Cl)C[C@H](C)N1C [Example 72, 6-(2,6-Dichlorophenyl)-2-((3-chloro-4-((3S,5R)-3,4,5-trimethylpiperazin-1-yl)phenyl)amino)-8,9-dihydroimidazo[1,2-a]pyrimido[5,4-e]pyrimidin-5(6H)-one]	59.2	328	22	75	97	–	–	–	–
CN1CCN(c2ccc(Nc3ncc4c(n3)N3CCN=C3N(c3c(Cl)cccc3Cl)C4=O)cc2C(F)(F)F)CC1 [Example 73, 6-(2,6-Dichlorophenyl)-2-((4-(4-methylpiperazin-1-yl)-3-(trifluoromethyl)phenyl)amino)-8,9-dihydroimidazo[1,2-a]pyrimido[5,4-e]pyrimidin-5(6H)-one]	194	–	–	–	83	1430	–	–	–
C[C@@H]1CN(c2ccc(Nc3ncc4c(n3)N3CCN=C3N(c3c(Cl)cccc3Cl)C4=O)cc2C(F)(F)F)C[C@H](C)N1C [Example 74, 6-(2,6-Dichlorophenyl)-2-((3-trifluoromethyl-4-((3S,5R)-3,4,5-trimethylpiperazin-1-yl)phenyl)amino)-8,9-dihydroimidazo[1,2-a]pyrimido[5,4-e]pyrimidin-5(6H)-one]	182	–	15	61	98	708	–	–	–
